Results as given in ChEMBL document CHEMBL4145445, “Design, synthesis and biological assessment of new thiazolylhydrazine derivatives as selective and reversible hMAO-A inhibitors” (Eur J Med Chem, 2018).

Assays:
[1] = target: T1, Amine oxidase [flavin-containing] B (Homo sapiens, UniProt P27338); assay: Inhibition of human MAO-B using tyramine hydrochloride as substrate after 30 mins by Amplex Red reagent based horseradish peroxidase enzyme-coupled fluorescence assay
T1 sequence (P27338 whole entry): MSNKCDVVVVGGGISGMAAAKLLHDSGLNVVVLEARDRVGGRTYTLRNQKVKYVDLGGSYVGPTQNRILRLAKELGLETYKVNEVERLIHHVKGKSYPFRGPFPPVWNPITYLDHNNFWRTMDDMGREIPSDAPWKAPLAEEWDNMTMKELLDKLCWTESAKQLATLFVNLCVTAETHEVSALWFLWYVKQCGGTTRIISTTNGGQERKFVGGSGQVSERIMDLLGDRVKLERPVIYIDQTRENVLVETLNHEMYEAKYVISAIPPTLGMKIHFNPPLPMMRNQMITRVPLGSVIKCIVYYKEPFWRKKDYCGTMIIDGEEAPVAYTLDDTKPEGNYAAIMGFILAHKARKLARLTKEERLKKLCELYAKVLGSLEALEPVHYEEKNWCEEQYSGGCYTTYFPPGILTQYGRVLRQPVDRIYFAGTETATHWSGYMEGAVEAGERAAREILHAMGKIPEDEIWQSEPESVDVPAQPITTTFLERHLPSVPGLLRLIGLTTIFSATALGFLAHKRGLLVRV

[2] = target: T2, Amine oxidase [flavin-containing] A (Homo sapiens, UniProt P21397); assay: Inhibition of human MAO-A at 10^-4 to 10^-3 M using tyramine hydrochloride as substrate after 30 mins by Amplex Red reagent based horseradish peroxidase enzyme-coupled fluorescence assay relative to control; conditions: 0.5 h
T2 sequence (P21397 whole entry): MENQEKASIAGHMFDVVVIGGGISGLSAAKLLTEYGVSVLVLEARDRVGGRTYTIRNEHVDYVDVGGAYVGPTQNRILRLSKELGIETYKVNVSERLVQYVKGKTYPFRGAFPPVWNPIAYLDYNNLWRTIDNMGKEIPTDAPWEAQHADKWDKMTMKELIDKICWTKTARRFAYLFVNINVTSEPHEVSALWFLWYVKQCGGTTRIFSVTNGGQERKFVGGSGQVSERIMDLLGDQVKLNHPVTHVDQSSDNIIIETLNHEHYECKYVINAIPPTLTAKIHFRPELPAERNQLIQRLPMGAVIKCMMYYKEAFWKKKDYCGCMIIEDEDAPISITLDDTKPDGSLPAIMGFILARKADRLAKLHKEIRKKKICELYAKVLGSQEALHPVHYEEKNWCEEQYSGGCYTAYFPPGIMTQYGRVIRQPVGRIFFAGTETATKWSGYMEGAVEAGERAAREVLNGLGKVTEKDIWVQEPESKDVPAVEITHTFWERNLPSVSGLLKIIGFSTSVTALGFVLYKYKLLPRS

[3] = organism: Homo sapiens; assay: Selectivity index, ratio of IC50 for human MAO-B to IC50 for human MAO-A
[4] = target: T1, Amine oxidase [flavin-containing] B; assay: Inhibition of human MAO-B at 10^-4 to 10^-3 M using tyramine hydrochloride as substrate after 30 mins by Amplex Red reagent based horseradish peroxidase enzyme-coupled fluorescence assay relative to control; conditions: 0.5 h
[5] = target: T2, Amine oxidase [flavin-containing] A; assay: Inhibition of human MAO-A using tyramine hydrochloride as substrate after 30 mins by Amplex Red reagent based horseradish peroxidase enzyme-coupled fluorescence assay

In the case of `Clc1ccc(-c2csc(N/N=C/c3ccc(N4CCOCC4)cc3)n2)cc1`, the IC50 [1] is reported as 558 µM, the “inhibition (INH)” value [2] is reported as > 50% and the Ratio IC50 [3] is reported as 52.8. The “inhibition (INH)” value [4] was > 50% and the IC50 [5] was 10.6 µM.

For `Cc1ccc(-c2csc(N/N=C/c3ccc(N4CCCC4)cc3)n2)cc1`, the IC50 [1] was > 100 µM, the “inhibition (INH)” value [2] was > 50% and the Ratio IC50 [3] was > 4.99. For the same molecule, the IC50 [5] was 20 µM.

For `Clc1ccc(-c2csc(N/N=C/c3ccc(N4CCOCC4)cc3)n2)c(Cl)c1`, the IC50 [1] was 133 µM, the “inhibition (INH)” value [2] was > 50% and the Ratio IC50 [3] was 1.56. For the same molecule, the “inhibition (INH)” value [4] was > 50% and the IC50 [5] was 85.4 µM.

With `N#Cc1ccc(-c2csc(N/N=C/c3ccc(N4CCOCC4)cc3)n2)cc1` the IC50 [1] was 42.9 µM, the “inhibition (INH)” value [2] was > 50% and the Ratio IC50 [3] was 0.795. For the same molecule, the “inhibition (INH)” value [4] was > 50% and the IC50 [5] was 54 µM.

`Cc1ccc(-c2csc(N/N=C/c3ccc(N4CCOCC4)cc3)n2)cc1` was tested, and the IC50 [1] was > 1000 µM, the “inhibition (INH)” value [2] was > 50% and the Ratio IC50 [3] was > 96.2. It also gave an IC50 [5] of 10.4 µM.

`Fc1ccc(-c2csc(N/N=C/c3ccc(N4CCCC4)cc3)n2)c(F)c1` was tested, and the IC50 [1] was 141 µM, the “inhibition (INH)” value [2] was > 50% and the Ratio IC50 [3] was 9.03. The “inhibition (INH)” value [4] was > 50% and the IC50 [5] was 15.6 µM.

With `C(=N\Nc1nc(-c2ccccc2)cs1)/c1ccc(N2CCCC2)cc1` the IC50 [1] was > 1000 µM, the “inhibition (INH)” value [2] was > 50% and the Ratio IC50 [3] was > 39.1. The IC50 [5] was 25.6 µM.

For `N#Cc1ccc(-c2csc(N/N=C/c3ccc(N4CCCC4)cc3)n2)cc1`, the IC50 [1] was 53.1 µM, the “inhibition (INH)” value [2] was > 50% and the Ratio IC50 [3] was 0.8. For the same molecule, the “inhibition (INH)” value [4] was > 50% and the IC50 [5] was 66.3 µM.
